For experiment [1], the system named is primary human T-cells.
Procedure: As readouts for T-cell activation, IL2 secretion after 24 hours and proliferation after 5 days was measured. Increases in IL2 secretion and proliferation upon compound treatment were assessed as the % of the maximum of reference compound A1. […] As a counter screen and to make sure that no unwanted TCR-independent activation was triggered, PBS conditions were run for all compounds.
For coating of plates, PBS++ with PBS−− or PBS++ with CD3 antibody (concentration depending on donor and determined by CD3 titrations) was added 100 μl/well to Poly-D Lysine coated 96-well plates. Plates were sealed and incubated at room temperature for 3 hours on a table-top rocking platform. After incubation, plates were washed once with PBS−− and filled with 40 μl/well culture medium only. Compounds were then added (see next section) to medium only plates. After 3 hours of culturing the T-cells, cells were filtered through a cell strainer (Miltenyi Biotech, #130-041-407), counted again and concentration was adjusted to 1.25 Mio/ml.
Cells were then seeded 80 μl/well to the 40 μl/well including dispensed compounds according to plate layout. By adding cells, compounds were further diluted 1:3, and resulting in 100 k cells/120 μl/well. After 24 hours 40 μl of supernatant was collected carefully from the top while not disturbing the cells and transferred into a round bottom 96 well plate. Collected and frozen supernatant was used for detection of IL2 using the IL-2 Human ProQuantum Immunoassay Kit (Invitrogen) or using the Human IL-2 ELISA Kit (Thermo Fisher).
Compounds were added in a 5 or 6pt dose response with the Tecan D300e Digital Dispenser, all conditions 3 times more concentrated than the end-concentration, since cells are added afterwards (80 μl cells to 40 μl prepared medium with treatment). The DR was starting at 20 μM or 10 μM final top concentration and a dilution factor of 3.333. The positive control was the reference compound A1 that was added in a dose response as well, additionally to 3 wells of only 20 μM representing the positive stimulator control. All wells were normalized with DMSO to a final concentration of 0.6% (0.2% end-concentration).
The immunoassay is done following the manufacturer's manual (Invitrogen, #A35603). Additional information: For the immunoassay, MicroAmp™ EnduraPlate™ Optical 384-Well plates are used. Frozen supernatant is thawed and centrifuged for 5 minutes at 1000×g, both steps at 4° C. After centrifugation, required sample amount is taken from the top, and in a separate LightCycler V-bottom plate (working plate) diluted with assay dilution buffer, dilution factor depending on the PBS or CD3 condition but at least 1:3. IL-2 standard and blanks are prepared in the same V-bottom plate, standard with a range of 0.0128-5000 pg/ml (extended version). After preparation, 5 μl of sample dilutions or standard/blanks are transferred to the optical 384-well plate (assay plate) and the 10 μl reaction protocol is being followed. For measurement, the QuantStudio 12K Flex system is used.
ELISA is done following the manufacturer's manual (Thermo Fisher Scientific, #88-7025-88). Additional information: For the ELISA Nunc MaxiSorp 96 well plates are used. Frozen supernatant is thawed and centrifuged for 5 minutes at 1000×g, both steps at 4° C. After that, required sample amount is taken from the top, and in a separate V-bottom plate diluted with ELISA diluent, dilution factor depending on the PBS or CD3 condition. IL-2 standard and blanks are prepared in the same V-bottom plate. After preparation, 50 μl of sample dilutions and 100 μl of standard or blanks are transferred to the Nunc plates.
CD3 and PBS plates were analysed separately in Genedata Screener using Roche Normalization PCT_POS_CTRL with DMSO set as Neutral Control and 20 μM of the reference compound A1 set as Stimulator Control/100%.
For CD3 conditions EC50 and Emax of the fitted sigmoidal curve were reported.
Experiment [2] concerns primary human T-cells. As to the kind of experiment: Proliferation assay after 5 days (CellTiter-Glo, CD3 stimulation; PBS counter screen). The experiment is classed as cell-based. Conditions: Homo sapiens, T-cell, 120 h, CD3 stimulation; for Emax: 5 days, normalized to reference compound A1 as stimulator control = 100%, DMSO neutral control, read-out: Emax proliferation (% activation); for EC50: primary human T-cells, CellTiter-Glo after 5 days, EC50 of fitted sigmoidal curve, read-out: Tcell Proliferation CD3 EC50. The protocol:
Compounds are then added (see next section) to medium only plates.
Cells are assessed for proliferation 5 days later by measuring […] using CellTiterGlo (Promega).
After 5 days, for detection of ATP which is directly proportional to the number of cells present per well, the CellTiter-Glo® 2.0 Reagent is used. After visual control for toxicity or precipitations of the tested compounds, the plates are equilibrated to room temperature for 45 minutes. CellTiter-Glo® 2.0 Reagent is equilibrated to room temperature as well. After equilibration, an equal amount of CellTiter-Glo reagent is added to the cells (80 μl/well) with an electronic multichannel pipette. Plates are placed on a rocking platform for 15 minutes at room temperature. After incubation, the bottom of the plates is sealed with backing tape. Luminescence is measured with PHERAstar FSX (interval time 0.5 sec, gain 3000, focal height 15 mm) and exported as CSV file for analysis in Genedata screener.
Compounds which activate unstimulated cells (see IL2 measurements) or compounds which negatively affected viability were flagged.

Read-outs that look alike come from different tables or passages of the source.

As to `CC(=O)N1CCN(c2nnc(-c3cc4c(cc3F)S(=O)(=O)C[C@H](N)C(=O)N4Cc3ccc(Cl)cc3)o2)CC1` [Example 471, (3R)-7-[5-(4-acetylpiperazin-1-yl)-1,3,4-oxadiazol-2-yl]-3-amino-5-[(4-chlorophenyl)methyl]-8-fluoro-1,1-dioxo-2,3-dihydro-1λ^6.5-benzothiazepin-4-one], the EC50 in the experiment with primary human T-cells [1] was above 10000 nM; with primary human T-cells [2] it was 8030 nM. In the experiment on primary human T-cells [2], the Emax is 65%.
Taken in the same sequence, the figures for `N[C@H]1CS(=O)(=O)c2cc(F)c(-c3nnc(C(F)(F)C(F)(F)F)o3)cc2N(Cc2ccc(Cl)cc2)C1=O` [Example 185, (3R)-3-amino-5-[(4-chlorophenyl)methyl]-8-fluoro-1,1-dioxo-7-[5-(1,1,2,2,2-pentafluoroethyl)-1,3,4-oxadiazol-2-yl]-2,3-dihydro-1λ^6,5-benzothiazepin-4-one] were 4930 nM, above 10000 nM and 13%.
`COC(=O)N1CC2CC(c3nc(-c4cc5c(cc4F)S(=O)(=O)C[C@H](N)C(=O)N5Cc4ccc(OC(F)(F)C(F)F)cc4)no3)(C2)C1` [Example 512, methyl 1-[3-[(3R)-3-amino-8-fluoro-1,1,4-trioxo-5-[[4-(1,1,2,2-tetrafluoroethoxy)phenyl]methyl]-2,3-dihydro-1λ^6,5-benzothiazepin-7-yl]-1,2,4-oxadiazol-5-yl]-3-azabicyclo[3.1.1]heptane-3-carboxylate] registered an EC50 with primary human T-cells [1] of 993 nM. For the same compound, the Emax in the experiment with primary human T-cells [2] worked out at 162%.
`Cc1cc2c(cc1-c1nnc(C3CN(C)CC(F)(F)C3)o1)N(Cc1ccc(Cl)cc1)C(=O)[C@@H](N)CS2(=O)=O` (stereo partly drawn) [Example 524, (3R)-3-amino-5-[(4-chlorophenyl)methyl]-7-[5-(5,5-difluoro-1-methyl-3-piperidyl)-1,3,4-oxadiazol-2-yl]-8-methyl-1,1-dioxo-2,3-dihydro-1λ^6,5-benzothiazepin-4-one]: the EC50 is above 10000 nM in the experiment on primary human T-cells [1] and 4270 nM in the experiment with primary human T-cells [2]. The Emax in the experiment with primary human T-cells [2] turned out to be 80%.
Compound `NC1CC2(C1)CC(c1nnc(-c3cc4c(cc3F)S(=O)(=O)C[C@H](N)C(=O)N4Cc3ccc(Cl)cc3)o1)C2` (stereo partly drawn) [Example 116, (3R)-3-amino-7-[5-(2-aminospiro[3.3]heptan-6-yl)-1,3,4-oxadiazol-2-yl]-5-[(4-chlorophenyl)methyl]-8-fluoro-1,1-dioxo-2,3-dihydro-1λ^6,5-benzothiazepin-4-one] registered an EC50 in the experiment with primary human T-cells [1] of 7340 nM. In the experiment with primary human T-cells [2], the Emax amounted to 84% and the EC50 amounted to 4640 nM.
Taken in the same sequence, the figures for `COC(=O)N1CC(n2nnc(-c3cc4c(cc3F)S(=O)(=O)C[C@H](N)C(=O)N4Cc3ccc(Cl)cc3)n2)CC(F)(F)C1` (stereo partly drawn) [Example 25, methyl 3,3-difluoro-5-[5-[(3R)-3-amino-5-[(4-chlorophenyl)methyl]-8-fluoro-1,1,4-trioxo-2,3-dihydro-1λ^6,5-benzothiazepin-7-yl]tetrazol-2-yl]piperidine-1-carboxylate] were 1320 nM, 132% and 249 nM.
For `N[C@H]1CS(=O)(=O)c2ccc(-c3nnc(-c4ccccc4)o3)cc2N(Cc2ccc(Cl)cc2)C1=O` [Example 374, (3R)-3-amino-5-[(4-chlorophenyl)methyl]-1,1-dioxo-7-(5-phenyl-1,3,4-oxadiazol-2-yl)-2,3-dihydro-1λ^6,5-benzothiazepin-4-one], the EC50 in the experiment on primary human T-cells [1] was 15100 nM; in the experiment with primary human T-cells [2] it was above 10000 nM. Besides, the Emax with primary human T-cells [2] was 52%.
`COC1(c2nnc(-c3ccc4c(c3)N(Cc3ccc(Cl)cc3)C(=O)[C@@H](N)CS4(=O)=O)o2)CC1` [Example 365, (3R)-3-amino-5-[(4-chlorophenyl)methyl]-7-[5-(1-methoxycyclopropyl)-1,3,4-oxadiazol-2-yl]-1,1-dioxo-2,3-dihydro-1λ^6,5-benzothiazepin-4-one]: the EC50 in the experiment on primary human T-cells [1] was 957 nM. For the same compound, in the experiment with primary human T-cells [2], the Emax was 142% and the EC50 came to 686 nM.
Taken in the same sequence, the figures for `CC(C)OCc1nnc(-c2cc3c(cc2F)S(=O)(=O)C[C@H](N)C(=O)N3Cc2ccc(Cl)cc2)o1` [Example 89, (3R)-3-amino-5-[(4-chlorophenyl)methyl]-8-fluoro-7-[5-(isopropoxymethyl)-1,3,4-oxadiazol-2-yl]-1,1-dioxo-2,3-dihydro-1λ^6,5-benzothiazepin-4-one] were 117 nM, 104% and 615 nM.
Turning to `CN[C@@H](CO)C(=O)N[C@H]1CS(=O)(=O)c2cc(F)c(-c3nnc(C(C)(C)C)o3)cc2N(Cc2ccc(Cl)cc2)C1=O` [Example 269, (2S)-3-hydroxy-2-(methylamino)-N-[(3R)-7-(5-tert-butyl-1,3,4-oxadiazol-2-yl)-5-[(4-chlorophenyl)methyl]-8-fluoro-1,1,4-trioxo-2,3-dihydro-1λ^6,5-benzothiazepin-3-yl]propanamide], the EC50 was above 10000 nM in the experiment with primary human T-cells [1] and 5840 nM in the experiment with primary human T-cells [2]. In addition, the Emax in the experiment on primary human T-cells [2] came out at 67%.
For `N[C@H]1CS(=O)(=O)c2cc(F)c(-c3nnc(C4CCCC4(F)F)o3)cc2N(Cc2ccc(Cl)cc2)C1=O` (stereo partly drawn) [Example 76, (3R)-3-Amino-5-[(4-chlorophenyl)methyl]-7-[5-(2,2-difluorocyclopentyl)-1,3,4-oxadiazol-2-yl]-8-fluoro-1,1-dioxo-2,3-dihydro-1λ^6,5-benzothiazepin-4-one] the same measures were 749 nM, 1080 nM and 173%.
Taken in the same sequence, the figures for `N[C@H]1CS(=O)(=O)c2cc(F)c(-c3noc(C4(N)COC4)n3)cc2N(Cc2ccc(OC(F)(F)F)cc2)C1=O` [Example 333, (3R)-3-amino-7-[5-(3-aminooxetan-3-yl)-1,2,4-oxadiazol-3-yl]-8-fluoro-1,1-dioxo-5-[[4-(trifluoromethoxy)phenyl]methyl]-2,3-dihydro-1lambda6,5-benzothiazepin-4-one] were 714 nM, 1220 nM and 94%.
As for `CC(C)N(C)C(=O)c1nnc(-c2cc3c(cc2F)S(=O)(=O)C[C@H](N)C(=O)N3Cc2ccc(Cl)cc2)o1` [Example 114, N-isopropyl-N-methyl-5-[(3R)-3-amino-5-[(4-chlorophenyl)methyl]-8-fluoro-1,1,4-trioxo-2,3-dihydro-1λ^6,5-benzothiazepin-7-yl]-1,3,4-oxadiazole-2-carboxamide], the EC50 with primary human T-cells [1] was found to be 756 nM. For the same compound, in the experiment on primary human T-cells [2], the Emax is 65% and the EC50 was above 10000 nM.
For `N[C@H]1CS(=O)(=O)c2cc(F)c(-c3noc(N4CCOC(C(F)(F)F)C4)n3)cc2N(Cc2ccc(Cl)cc2)C1=O` (stereo partly drawn) [Example 193, (3R)-3-amino-5-[(4-chlorophenyl)methyl]-8-fluoro-1,1-dioxo-7-[5-[2-(trifluoromethyl)morpholin-4-yl]-1,2,4-oxadiazol-3-yl]-2,3-dihydro-1λ^6,5-benzothiazepin-4-one] the same measures were 38.7 nM, 108% and 21.3 nM.
For `CC1(C)COCCN1c1nnc(-c2cc3c(cc2F)S(=O)(=O)C[C@H](N)C(=O)N3Cc2ccc(Cl)cc2)o1` [Example 491, (3R)-3-amino-5-[(4-chlorophenyl)methyl]-7-[5-(3,3-dimethylmorpholin-4-yl)-1,3,4-oxadiazol-2-yl]-8-fluoro-1,1-dioxo-2,3-dihydro-1λ^6,5-benzothiazepin-4-one] the same measures were 443 nM, 56% and 142 nM.
For `[2H]C([2H])([2H])C(c1nnc(-c2ccc3c(c2)N(Cc2ccc(Cl)cc2)C(=O)[C@@H](N)CS3(=O)=O)o1)(C([2H])([2H])[2H])C([2H])([2H])[2H]` [Example 380, (3R)-3-amino-5-[(4-chlorophenyl)methyl]-1,1-dioxo-7-[5-[2,2,2-trideuterio-1,1-bis(trideuteriomethyl)ethyl]-1,3,4-oxadiazol-2-yl]-2,3-dihydro-1λ^6,5-benzothiazepin-4-one] the same measures were 819 nM, 132% and 613 nM.
In the experiment with primary human T-cells [1], `CC(C)(C)n1nnc(-c2ccc3c(c2)N(Cc2ccc(OC(F)(F)F)cc2)C(=O)[C@@H](N)CS3(=O)=O)n1` [Example 31, (3R)-3-amino-7-(2-tert-butyltetrazol-5-yl)-1,1-dioxo-5-[[4-(trifluoromethoxy)phenyl]methyl]-2,3-dihydro-1λ^6,5-benzothiazepin-4-one] registered an EC50 of 344 nM. Also, in the experiment with primary human T-cells [2], the Emax turned out to be 97% and the EC50 stood at 276 nM.
For the compound `N[C@H]1CS(=O)(=O)c2cc(F)c(-c3nnc(C4CCCC(F)(F)C4)o3)cc2N(Cc2ccc(OC(F)(F)F)cc2)C1=O` (stereo partly drawn) [Example 55, (3R)-3-Amino-7-[5-(3,3-difluorocyclohexyl)-1,3,4-oxadiazol-2-yl]-8-fluoro-1,1-dioxo-5-[[4-(trifluoromethoxy)phenyl]methyl]-2,3-dihydro-1λ^6,5-benzothiazepin-4-one], the EC50 in the experiment with primary human T-cells [1] is 53.2 nM; in the experiment on primary human T-cells [2], 50.7 nM. In addition, the Emax with primary human T-cells [2] was found to be 282%.
Taken in the same sequence, the figures for `N[C@H]1CS(=O)(=O)c2cc(F)c(-c3nnc(C4CCC4(F)F)o3)cc2N(Cc2ccc(Cl)cc2)C1=O` (stereo partly drawn) [Example 81, (3R)-3-Amino-5-[(4-chlorophenyl)methyl]-7-[5-(2,2-difluorocyclobutyl)-1,3,4-oxadiazol-2-yl]-8-fluoro-1,1-dioxo-2,3-dihydro-1λ^6,5-benzothiazepin-4-one] were 1270 nM, 521 nM and 185%.

The values are drawn from patent US20240368150A1 (Hoffmann-La Roche Inc., priority 2021, published 2024).
